Source: publication PMC12371506 (ACS Bio & Med Chem Au, 2025)
Residues, ends and D or L forms follow the SMILES beside them. *: point of attachment. Cbz = O=C(OCc1ccccc1)*; CH2F = FC*

Legend:
caspase-9 = molecular target: T1, caspase-9 (Homo sapiens, UniProt P55211); assay: In vitro inhibition assay, caspase-9; assay type: biochemical
T1 sequence (P55211 1-315 limits assumed): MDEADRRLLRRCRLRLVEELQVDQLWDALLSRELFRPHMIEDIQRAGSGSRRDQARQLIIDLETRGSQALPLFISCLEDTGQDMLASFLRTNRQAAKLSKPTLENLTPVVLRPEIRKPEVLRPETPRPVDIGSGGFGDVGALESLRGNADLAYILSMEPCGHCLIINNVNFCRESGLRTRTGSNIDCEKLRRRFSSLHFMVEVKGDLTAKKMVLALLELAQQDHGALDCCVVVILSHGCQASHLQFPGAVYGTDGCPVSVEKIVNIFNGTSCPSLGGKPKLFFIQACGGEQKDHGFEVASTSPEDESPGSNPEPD
T1 sequence (P55211 331-416 limits assumed): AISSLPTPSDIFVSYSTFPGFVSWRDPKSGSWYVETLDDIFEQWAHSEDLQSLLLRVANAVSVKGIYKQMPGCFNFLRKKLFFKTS

[1] = test system: HCC1806 triple-negative breast cancer cells; assay: TNF-α-induced extrinsic apoptosis in HCC1806 cells; conditions: 10 μM inhibitor 30 min, then TNF-α; early time points (2–6 h)
THP1 monocytes = assay: TRAIL-induced extrinsic apoptosis in THP1 monocytes; assay type: cell-based, human; conditions: 25 μM inhibitor

IC50 (caspase-9) | SMILES | caspases-3/7 activation (caspase-3/7 dye) [1] | relative potency at inhibiting caspases-3/7 activity (caspases-3/7 dye) (THP1 monocytes)
540 ± 260 nM | CCO[C@@H]1OC(=O)C[C@@H]1NC(=O)[C@@H]1CCCN1C(=O)[C@@H](NC(=O)c1ccc(N)c(Cl)c1)C(C)(C)C [VX-765, (S)-1-((S)-2-{[1-(4-amino-3-chloro-phenyl)-methanoyl]-amino}-3,3-dimethyl-butanoyl)-pyrrolidine-2-carboxylic acid ((2R,3S)-2-ethoxy-5-oxo-tetrahydro-furan-3-yl)-amide] |  | 
1470 ± 620 nM | CC[C@H](C)[C@H](NC(=O)OCc1ccccc1)C(=O)N[C@@H](CCC(=O)OC)C(=O)N[C@H](C(=O)N[C@@H](CC(=O)OC)C(=O)CF)[C@@H](C)O [zIETD-FMK] (Cbz-IE(OMe)TD(OMe)-CH2F) | inhibition of caspases-3/7 activation | 
800 ± 320 nM | COC(=O)CC[C@H](NC(=O)[C@H](CC(C)C)NC(=O)OCc1ccccc1)C(=O)N[C@@H](Cc1c[nH]cn1)C(=O)N[C@@H](CC(=O)OC)C(=O)CF [zLEHD-FMK] (Cbz-LE(OMe)HD(OMe)-CH2F) |  | more potent than zIETD-FMK
